Laboratory results from the NIST ThermoML archive (doi:10.1021/acs.jced.8b00176).

Assay: xn = mol fraction of the nth substance listed
Settings: 100 kPa, Liquid; for viscosity: Falling or rolling sphere viscometry; for speed of sound: Frequency=3 MHz, Single path-length method; for mass density: Vibrating tube method

CC#N [acetonitrile] + CN(C)C=O
Settings	mass density [kg/m3]	speed of sound [m/s]	viscosity [mPa·s]
298.15 K, x2 = 0	776.714	1278.5	0.34
298.15 K, x2 = 0.0989	802.565	1302.5	0.4
298.15 K, x2 = 0.1916	826.376	1322	0.44
298.15 K, x2 = 0.2925	844.614	1339.6	0.48
298.15 K, x2 = 0.3932	865.725	1361.6	0.54
298.15 K, x2 = 0.5029	880.889	1377.5	0.61
298.15 K, x2 = 0.6002	895.421	1395.9	0.65
298.15 K, x2 = 0.6931	907.546	1411.4	0.69
298.15 K, x2 = 0.7926	922.026	1429.2	0.75
298.15 K, x2 = 0.8996	932.676	1442.8	0.79
303.15 K, x2 = 0	771.289	1258.4	0.32
303.15 K, x2 = 0.0989	797.299	1282.7	0.39
303.15 K, x2 = 0.1916	821.229	1302.3	0.42
303.15 K, x2 = 0.2925	839.435	1320.1	0.46
303.15 K, x2 = 0.3932	860.639	1342.2	0.51
303.15 K, x2 = 0.5029	875.938	1358.1	0.57
303.15 K, x2 = 0.6002	890.518	1376.6	0.61
303.15 K, x2 = 0.6931	902.756	1392	0.65
303.15 K, x2 = 0.7926	917.22	1409.9	0.7
303.15 K, x2 = 0.8996	927.901	1423.3	0.75
308.15 K, x2 = 0	765.833	1238.2	0.31
308.15 K, x2 = 0.0989	792.024	1262.9	0.37
308.15 K, x2 = 0.1916	816.008	1282.5	0.4
308.15 K, x2 = 0.2925	834.219	1300.5	0.44
308.15 K, x2 = 0.3932	855.56	1322.6	0.49
308.15 K, x2 = 0.5029	870.924	1338.6	0.54
308.15 K, x2 = 0.6002	885.607	1357.2	0.58
308.15 K, x2 = 0.6931	897.887	1372.6	0.61
308.15 K, x2 = 0.7926	912.402	1390.5	0.66
308.15 K, x2 = 0.8996	923.153	1404	0.71
313.15 K, x2 = 0	760.339	1218	0.3
313.15 K, x2 = 0.0989	786.729	1243	0.35
313.15 K, x2 = 0.1916	810.757	1262.8	0.39
313.15 K, x2 = 0.2925	829.087	1280.9	0.42
313.15 K, x2 = 0.3932	850.487	1303.2	0.46
313.15 K, x2 = 0.5029	865.854	1319.2	0.51
313.15 K, x2 = 0.6002	880.698	1337.9	0.55
313.15 K, x2 = 0.6931	893.049	1353.3	0.58
313.15 K, x2 = 0.7926	907.663	1371.3	0.63
313.15 K, x2 = 0.8996	918.366	1384.7	0.69
318.15 K, x2 = 0	754.815	1197.9	0.29
318.15 K, x2 = 0.0989	781.363	1223.3	0.33
318.15 K, x2 = 0.1916	805.527	1243.1	0.37
318.15 K, x2 = 0.2925	823.852	1261.3	0.4
318.15 K, x2 = 0.3932	845.354	1283.7	0.44
318.15 K, x2 = 0.5029	860.76	1299.9	0.49
318.15 K, x2 = 0.6002	875.703	1318.6	0.52
318.15 K, x2 = 0.6931	888.143	1334	0.55
318.15 K, x2 = 0.7926	902.79	1352.1	0.59
318.15 K, x2 = 0.8996	913.57	1365.5	0.63
323.15 K, x2 = 0	749.253	1177.8	0.28
323.15 K, x2 = 0.0989	776.028	1203.5	0.32
323.15 K, x2 = 0.1916	800.222	1223.4	0.35
323.15 K, x2 = 0.2925	818.614	1241.9	0.38
323.15 K, x2 = 0.3932	840.213	1264.4	0.42
323.15 K, x2 = 0.5029	855.738	1280.6	0.46
323.15 K, x2 = 0.6002	870.738	1299.4	0.5
323.15 K, x2 = 0.6931	883.209	1314.8	0.53
323.15 K, x2 = 0.7926	897.991	1332.9	0.56
323.15 K, x2 = 0.8996	908.741	1346.3	0.6

CCCCn1cc[n+](C)c1.O=S(=O)([O-])C(F)(F)F [1-butyl-3-methylimidazolium trifluoromethanesulfonate] + CC#N
Settings	mass density [kg/m3]	speed of sound [m/s]	viscosity [mPa·s]
298.15 K, x1 = 0.0911	958.58	1306.2	0.94
298.15 K, x1 = 0.2023	1074.82	1330.8	1.74
298.15 K, x1 = 0.3029	1137.12	1347.2	4.03
298.15 K, x1 = 0.3998	1179	1359.4	6.63
298.15 K, x1 = 0.4994	1211.16	1368.6	11.09
298.15 K, x1 = 0.5953	1234.14	1375.6	19.01
298.15 K, x1 = 0.7029	1255.85	1382.5	29.57
298.15 K, x1 = 0.8009	1271.78	1386.6	40.36
298.15 K, x1 = 0.9012	1285.59	1389.8	56.57
298.15 K, x1 = 1	1297.46	1393.2	82.38
303.15 K, x1 = 0.0911	954.576	1289.2	0.88
303.15 K, x1 = 0.2023	1070.41	1315.6	1.61
303.15 K, x1 = 0.3029	1132.76	1333	3.64
303.15 K, x1 = 0.3998	1174.94	1346.1	5.9
303.15 K, x1 = 0.4994	1207.1	1355.7	9.65
303.15 K, x1 = 0.5953	1230.08	1363.1	16.22
303.15 K, x1 = 0.7029	1251.97	1370.6	24.73
303.15 K, x1 = 0.8009	1267.97	1374.9	33.14
303.15 K, x1 = 0.9012	1281.58	1378.4	45.89
303.15 K, x1 = 1	1293.46	1382.8	66.69
308.15 K, x1 = 0.0911	949.838	1272.1	0.83
308.15 K, x1 = 0.2023	1066.01	1300.6	1.58
308.15 K, x1 = 0.3029	1128.52	1318.8	3.3
308.15 K, x1 = 0.3998	1170.95	1332.8	5.26
308.15 K, x1 = 0.4994	1202.79	1343	8.46
308.15 K, x1 = 0.5953	1225.98	1350.7	13.86
308.15 K, x1 = 0.7029	1247.9	1358.8	20.9
308.15 K, x1 = 0.8009	1264.18	1363.4	27.82
308.15 K, x1 = 0.9012	1277.73	1367	37.7
308.15 K, x1 = 1	1289.47	1371.7	52.86
313.15 K, x1 = 0.0911	944.8	1255.1	0.79
313.15 K, x1 = 0.2023	1061.34	1285.5	1.48
313.15 K, x1 = 0.3029	1124.17	1304.8	3.01
313.15 K, x1 = 0.3998	1166.71	1319.6	4.73
313.15 K, x1 = 0.4994	1198.75	1330.3	7.48
313.15 K, x1 = 0.5953	1221.91	1338.4	12.06
313.15 K, x1 = 0.7029	1243.95	1347	17.91
313.15 K, x1 = 0.8009	1260.12	1352	23.51
313.15 K, x1 = 0.9012	1273.98	1355.8	31.45
313.15 K, x1 = 1	1285.47	1360.7	43.67
318.15 K, x1 = 0.0911	939.614	1238.2	0.75
318.15 K, x1 = 0.2023	1057.1	1270.6	1.4
318.15 K, x1 = 0.3029	1120.05	1290.8	2.75
318.15 K, x1 = 0.3998	1162.77	1306.4	4.26
318.15 K, x1 = 0.4994	1194.47	1317.7	6.65
318.15 K, x1 = 0.5953	1217.75	1326.2	10.56
318.15 K, x1 = 0.7029	1240.12	1335.4	15.52
318.15 K, x1 = 0.8009	1256.17	1340.7	20.16
318.15 K, x1 = 0.9012	1270.02	1344.7	26.58
318.15 K, x1 = 1	1281.47	1349.9	36.29
323.15 K, x1 = 0.0911	934.671	1221.3	0.71
323.15 K, x1 = 0.2023	1052.93	1255.8	1.32
323.15 K, x1 = 0.3029	1115.71	1276.9	2.54
323.15 K, x1 = 0.3998	1158.5	1293.4	3.88
323.15 K, x1 = 0.4994	1190.69	1305.2	5.95
323.15 K, x1 = 0.5953	1213.78	1314	9.33
323.15 K, x1 = 0.7029	1236.14	1323.8	13.54
323.15 K, x1 = 0.8009	1252.29	1329.5	17.4
323.15 K, x1 = 0.9012	1266.17	1333.7	22.66
323.15 K, x1 = 1	1277.48	1338.8	30.57
